Data as given in ChEMBL document CHEMBL5365463, “Identification of a Self-Assembling Small-Molecule Cancer Vaccine Adjuvant with an Improved Toxicity Profile” (J Med Chem, 2023).
Activity calls are given as the source filed them. The calls are words filed in the database; no cut-off is given here.

How the values were obtained:
BMDC [1] = test: Induction of IL-6 production in mouse BMDC cells at 100 uM; type: functional, cell-based
RAW264.7 [2] = test: Induction of apoptosis in mouse RAW264.7 cells assessed as live cells at 8 uM by flow cytometry analysis (reference value: 75.4 %); type: functional
RAW264.7 [3] = test: Induction of apoptosis in mouse RAW264.7 cells assessed as live cells at 10 uM by flow cytometry analysis (reference value: 75.4 %); type: functional
RAW264.7 [4] = test: Induction of apoptosis in mouse RAW264.7 cells assessed as live cells at 12 uM by flow cytometry analysis (reference value: 75.4 %); type: functional
RAW264.7 [5] = test: Induction of apoptosis in mouse RAW264.7 cells assessed as necrotic cells at 12 uM by flow cytometry analysis (reference value: 20.6 %); type: functional
[6] = Toxicity in BALB/c mouse assessed as reduction in leukocyte count measured after 16 hrs; conditions: dose 100-1000 µg
BMDC [7] = test: Induction of immune response in TLR7 knockout mouse BMDC cells assessed as increase in TNF-alpha production at 10 to 100 uM incubated for 24 hrs by ELISA method; type: functional, cell-based; conditions: dose 10-100 µM
[8] = Upregulation of CD40 expression in mouse RAW264.7 cells assessed as fold increase in fluorescence intensity at 20 uM measured after 24 hrs by flow cytometry analysis; type: functional
Mus musculus [9] = species on record: Mus musculus; test: Induction of immune response in C57BL/6 mouse assessed as increase in total CD8+T cells percentage in spleen at 100 ug measured after 35 days by flow cytometry analysis; type: functional, organism-based; conditions: dose 100.0 µg, time 35.0 day
Mus musculus [10] = species on record: Mus musculus; test: Induction of immune response in OVAp immunized C57BL/6 mouse assessed as fold increase in IFN-gamma+ cytotoxic T lymphocytes at 100 ug measured after 35 days by flow cytometry analysis; type: functional, T-cell; conditions: dose 100 µg; time 35 day
B16-OVA melanoma cell [11] = test: Antitumor activity against mouse B16-OVA melanoma cell xenografted in C57BL/6 mouse assessed as at 500 ug administered 5 times for every 2 days from day 9 to 17 in presence of OVAp; type: functional, cell-based; conditions: dose 500.0 µg, time 9.0 day
B16-OVA melanoma cell [12] = test: Antitumor activity against mouse B16-OVA melanoma cell xenografted in C57BL/6 mouse assessed as increase in CD8+T cell level in spleen at 500 ug measured after 24 hrs in presence of OVAp by flow cytometry analysis; type: functional, cell-based; conditions: dose 500.0 µg
[13] = Antitumor activity against mouse B16-OVA melanoma cell xenografted in C57BL/6 mouse assessed as fold increase in CD8+T cells at 500 ug, sc in presence of OVAp by flow cytometry analysis; type: functional; conditions: dose 500 µg
B16-OVA melanoma cell [14] = test: Antitumor activity against mouse B16-OVA melanoma cell xenografted in C57BL/6 mouse assessed as effect on central memory T cell in spleen at 500 ug, sc in presence of OVAp by flow cytometry analysis; type: functional, organism-based; conditions: dose 500.0 µg
[15] = Toxicity in C57BL/6 mouse assessed as effect on AST level in serum at 500 ug measured after 1 day after immunization; conditions: 24 h, dose 500 µg
[16] = Toxicity in C57BL/6 mouse assessed as effect on urea level in serum at 500 ug measured after 1 day after immunization; conditions: 24 h, dose 500 µg
[17] = Toxicity in C57BL/6 mouse assessed as effect on creatinine level in serum at 500 ug measured after 1 day after immunization; conditions: 24 h, dose 500 µg
[18] = Toxicity in C57BL/6 mouse assessed as effect on kidney at 500 ug, sc by H and E staining based analysis; type: organism-based; conditions: in vivo, dose 500 µg

## C[C@H](CCC(=O)NCCCCCCCNC(=O)CC[C@@H](C)[C@H]1CC[C@H]2[C@@H]3CC[C@@H]4C[C@H](O)CC[C@]4(C)[C@H]3C[C@H](O)[C@]12C)[C@H]1CC[C@H]2[C@@H]3CC[C@@H]4C[C@H](O)CC[C@]4(C)[C@H]3C[C@H](O)[C@]12C
BMDC [1]
  Activity: Active
RAW264.7 [2]
  Activity: 60.7%
RAW264.7 [3]
  Activity: 67.2%
RAW264.7 [4]
  Activity: 66.8%
RAW264.7 [5]
  Activity: 30.5%
[6]
  Activity: Non-Toxic
BMDC [7]
  Activity: inactive
[8]
  fold change (FC): 1.3
Mus musculus [9]
  Activity: Active
Mus musculus [10]
  fold change (FC): 7.6
B16-OVA melanoma cell [11]
  Activity: Active
B16-OVA melanoma cell [12]
  Activity: Active
[13]
  fold change (FC): 6.3
B16-OVA melanoma cell [14]
  Activity: Active
[15]
  Activity: Non-Toxic
[16]
  Activity: Non-Toxic
[17]
  Activity: Non-Toxic
[18]
  Activity: Non-Toxic
